Laboratory results taken from patent US20060111305A1, “Metabolites of certain [1,4]diazepino[6,7,1-ij]quinoline derivatives and methods of preparation and use thereof” (Wyeth, priority 2004, published 2006).

Experiments:
[1] = Metabolites of DCDQ generated by liver microsomes and hepatocytes, LC/MS characterization (Table 6); type: in vitro ADME; settings: MM mouse, RM rat, DM dog, HM human liver microsomes; HH human hepatocytes
Source text: An Agilent Model 1100 HPLC system (Agilent Technologies, Palo Alto, Calif.) including an autosampler and diode array UV detector was used for LC/MS analysis. The UV detector was set to monitor 200 to 400 nm. For selected LC/MS analysis, radiochromatograms were acquired using a β-Ram model 3 radioactivity flow detector (IN/US Systems Inc., Tampa, Fla.) equipped with a solid scintillant flow cell. Separations were accomplished on a Phenomenex Luna C18(2) column (2×150 mm, 5 μm) under the same conditions as described above.
The mass spectrometer used for metabolite characterization was a Micromass Q-TOF-2 quadrupole time-of-flight hybrid mass spectrometer ([…].). The mass spectrometer was equipped with an electrospray ionization (ESI) interface and operated in the positive ionization mode. Collision energy settings of 5 and 30 eV were used for full MS and MS/MS scans, respectively. Settings for the mass spectrometer are listed below.
Mass spectra were obtained by LC/MS and LC/MS/MS analysis for DCDQ and its metabolites.

[2] = Metabolite profiles of DCDQ in human plasma and urine by LC/MS (Table 33); type: in vivo, healthy human subjects; settings: human plasma and urine, healthy subjects receiving DCDQ
Description: Drug administration and specimen collection were performed in a randomized, double-blinded, placebo-controlled, ascending single dose study of the safety, tolerability, pharmacokinetics, and pharmacodynamics of DCDQ administered orally to healthy subjects and subjects with schizophrenia and schizoaffective disorder. The specimens were stored at approximately −70° C. until analysis for metabolite profiles and for ratios of carbamoyl glucuronide (M6) to DCDQ.
Two subjects with medium and high exposure to DCDQ in the 25 mg multiple ascending dose study were also analyzed by LC/MS for metabolite profiles. The 8 hr plasma samples collected on day 1 and day 14 from subjects 9 and 41 were processed and analyzed as described below. No internal standard was added to the samples analyzed for metabolite profiles.
LC/MS System 1 was used for analysis of plasma and urine samples for metabolite characterization. The HPLC equipment used with this LC/MS System consisted of an Agilent Model 1100 HPLC system (Agilent Technologies, Palo Alto, Calif.) including an autosampler, binary pump and diode array UV detector. The UV detector was set to monitor 210 to 350 nm. The HPLC mobile phase consisted of 10 mM ammonium acetate, pH 4.5 (A) and methanol (B), and was delivered at 0.2 mL/min. The linear mobile phase gradient (HPLC Gradient 1) is shown below. During LC/MS sample analysis, up to 6 min of the initial flow was diverted away from the mass spectrometer prior to evaluation of metabolites.
The mass spectrometer used for metabolite characterization with LC/MS System 1 was a Finnigan LCQ-Deca ion trap mass spectrometer (Thermo Electron, San Jose, Calif.). This mass spectrometer was equipped with an electrospray ionization (ESI) interface and operated in the positive ionization mode. Settings for the LCQ mass spectrometer are listed below.
LC/MS System 2 was used to provide additional MS/MS data for characterization of DCDQ metabolites in urine. The HPLC equipment used with LC/MS System 2 consisted of a Waters model 2695 HPLC system (Waters Corp., Milford, Mass.). It was equipped with a built-in autosampler and a model 996 diode array UV detector. The UV detector was set to monitor 210-400 nm. The HPLC column, mobile phases, flow rate, diversion of flow away from the mass spectrometer and gradient were as described above for LC/MS System 1. The column temperature was 25° C.
The mass spectrometer used for metabolite characterization with LC/MS System 2 was a Micromass Quattro Micro triple quadrupole mass spectrometer (Waters Corp.). This mass spectrometer was equipped with an electrospray interface and operated in the positive ionization mode. Settings for this mass spectrometer are listed below.

[3] = system: cryopreserved human hepatocytes; experiment: Incubation of [14C]DCDQ with cryopreserved human hepatocytes; type: in vitro ADME; settings: 10 or 50 μM DCDQ, 4 hours
Description: Vials containing cryopreserved human hepatocytes were thawed in a 37° C. water bath with gentle shaking until the ice was almost melted. The vials were removed from the water bath and gentle shaking continued at room temperature for 30-60 seconds until completely thawed. The hepatocyte suspensions from each vial were immediately transferred to pre-cooled 50 mL beakers on ice. To each beaker, 12 mL of ice-cold hepatocyte suspension media was added dropwise over one minute, with occasional, gentle shaking by hand to prevent the cells from settling. The cell suspensions were transferred to a 15 mL tube and centrifuged at 100 g force for 3 min at 4° C. (Model T21 super centrifuge, Sorvall). The supernatant was discarded and the pellets were re-suspended in 4 mL of ice-cold hepatocyte culture media. The cell suspensions contained approximately 3.1×10^6 viable hepatocytes/mL. The average viability was 76.0% as determined using Trypan Blue exclusion and a hemacytometer.
The cell suspensions were distributed into 12-well plates at 1.0 mL per well. Incubations were performed using pooled hepatocytes from two donors. [^14C]DCDQ in water was added to the hepatocyte suspension at a final concentration of 10 or 50 μM. Incubations were carried out at 37° C. for 4 hours in an incubator supplied with 5% CO2. At the end of the incubation, the reaction was stopped by the addition of 200 μL cold methanol to each well. The content of each well was transferred to a 15 mL centrifuge tube and sonicated for 30 seconds. After vortex mixing with 6 mL methanol and then centrifugation, the supernatant was transferred to a clean tube and evaporated to about 0.5 mL in a TurboVap evaporator. The residue was analyzed by HPLC and LC/MS.
A Waters model 2690 HPLC system (Waters Corp., Milford, Mass.) with a built-in autosampler was used for analysis. […] A variable wavelength UV detector set to monitor 250 nm and Flo-One β Model A525 radioactivity flow detector (Perkin Elmer) with a 250 μL LQTR flow cell were used for data acquisition. […]

Source [1]: MM, RM, DM, HM, HH | Matrix (in which DCDQ / metabolite was characterized by LC/MS) [2]: P, U | metabolite detected in human hepatocyte incubations [3]: observed
SMILES: C1=NCCN2C[C@@H]3CCC[C@@H]3c3cccc1c32 [Metabolite P3, DCDQ imine]
